Consider twelve compounds from PubChem BioAssay AID194 (DTP/NCI, 2004).

This assay relates to BDF1 mice, B16 melanoma s.c., survival/tumor T/C. The assay is described as follows: NCI In Vivo Anticancer Drug Screen. Data for tumor model B16 Melanoma (subcutaneous) in B6D2F1 (BDF1) mice. As to the method: The antitumor activity of compounds was measured in mice bearing transplantable tumors. Survival or tumor size were measured and the results are expressed as the measurement made in the treated group (T) divided by the measurement made in the vehicle treated control group (C). The tumor model used in this assay is B16 Melanoma (subcutaneous) in B6D2F1 (BDF1) mice

Where [1] appears, read: endpoint: median survival time, dose: 4.0 mg/kg/injection, schedule: Q01DX009 (ip), vehicle: saline, higher = longer survival.
Where [2] appears, read: endpoint: median survival time, dose: 16.0 mg/kg/injection, schedule: Q01DX009 (ip), vehicle: saline, higher = longer survival.
The mark [3] stands for this setting: endpoint: median survival time, dose: 32.0 mg/kg/injection, schedule: Q01DX009 (ip), vehicle: saline, higher = longer survival.
Setting [4] is: endpoint: median survival time, dose: 64.0 mg/kg/injection, schedule: Q01DX009 (ip), vehicle: saline, higher = longer survival.

Each structure is given as a SMILES string. Where “and” joins values, the source holds several entries; their conditions need not be identical. Identical values can stand only once. Inconclusive results are not listed.

In the case of `O=[N+]([O-])O.[Ga]`, the T/C is 109 % of control under setting [1]; 91 % of control under setting [2]; 86 % of control under setting [3]; 99 % of control (endpoint: median survival time, dose: 40.0 mg/kg/injection, schedule: Q01DX009 (ip), vehicle: saline, higher = longer survival); 95 % of control under setting [4]; 104 % of control (endpoint: median survival time, dose: 90.0 mg/kg/injection, schedule: Q01DX009 (ip), vehicle: saline, higher = longer survival). Besides, the T/C runs as follows: (endpoint: median survival time, dose: 200.0 mg/kg/injection, schedule: Q04DX003 (ip), vehicle: saline, higher = longer survival) 99 % of control; (endpoint: median survival time, dose: 400.0 mg/kg/injection, schedule: Q01DX001 (ip), vehicle: saline, higher = longer survival) 100 % of control; (endpoint: median survival time, dose: 600.0 mg/kg/injection, schedule: Q01DX001 (ip), vehicle: saline, higher = longer survival) 100 % of control.

In the case of `Cc1ncc([N+](=O)[O-])n1CCO`, the T/C is 100 % of control (endpoint: median survival time, dose: 37.5 mg/kg/injection, schedule: Q01DX009 (ip), vehicle: Klucel (hydroxypropylcellulose) (HPC), higher = longer survival); 100 % of control (endpoint: median survival time, dose: 37.5 mg/kg/injection, schedule: Q04DX003 (ip), vehicle: Klucel (hydroxypropylcellulose) (HPC), higher = longer survival); 100 % of control (endpoint: median survival time, dose: 75.0 mg/kg/injection, schedule: Q01DX009 (ip), vehicle: Klucel (hydroxypropylcellulose) (HPC), higher = longer survival); 111 % of control (endpoint: median survival time, dose: 75.0 mg/kg/injection, schedule: Q04DX003 (ip), vehicle: Klucel (hydroxypropylcellulose) (HPC), higher = longer survival); 108 % of control (endpoint: median survival time, dose: 150.0 mg/kg/injection, schedule: Q01DX009 (ip), vehicle: Klucel (hydroxypropylcellulose) (HPC), higher = longer survival); 111 % of control (endpoint: median survival time, dose: 150.0 mg/kg/injection, schedule: Q04DX003 (ip), vehicle: Klucel (hydroxypropylcellulose) (HPC), higher = longer survival). In addition, the T/C is 93 % of control (endpoint: median survival time, dose: 300.0 mg/kg/injection, schedule: Q01DX009 (ip), vehicle: Klucel (hydroxypropylcellulose) (HPC), higher = longer survival); 112 % of control (endpoint: median survival time, dose: 300.0 mg/kg/injection, schedule: Q04DX003 (ip), vehicle: Klucel (hydroxypropylcellulose) (HPC), higher = longer survival); 121 % of control (endpoint: median survival time, dose: 600.0 mg/kg/injection, schedule: Q04DX003 (ip), vehicle: Klucel (hydroxypropylcellulose) (HPC), higher = longer survival).

As to `O=NN(CCF)C(=O)NC1C(O)CCCC1O` (stereo unspecified), the T/C by setting is: (endpoint: median survival time, dose: 3.11 mg/kg/injection, schedule: Q01DX007 (ip), vehicle: water, higher = longer survival) 98 % of control; (endpoint: median survival time, dose: 5.18 mg/kg/injection, schedule: Q01DX007 (ip), vehicle: water, higher = longer survival) 103 % of control; (endpoint: median survival time, dose: 8.64 mg/kg/injection, schedule: Q01DX007 (ip), vehicle: water, higher = longer survival) 112 % of control; (endpoint: median survival time, dose: 14.4 mg/kg/injection, schedule: Q01DX007 (ip), vehicle: water, higher = longer survival) 123 % of control.

As for `Cc1c(N)nc(C(CC(N)=O)NCC(N)C(N)=O)nc1C(=O)NC(C(=O)NC(C)C(O)CC(=O)NC(C(=O)NC(OC1OC(C)C(N)C(O)C1O)C(O)c1nc(-c2nc(C(=O)NCCCC(N)CC(=O)NCCCNCCCCN)cs2)cs1)C(C)O)C(OC1OC(CO)C(O)C(O)C1OC1OC(CO)C(O)C(OC(N)=O)C1O)c1cnc[nH]1` (stereo unspecified), the T/C was 173 % of control (endpoint: median survival time, dose: 1.0 mg/kg/injection, schedule: Q01DX009 (ip), vehicle: saline, higher = longer survival); 174 % of control (endpoint: median survival time, dose: 2.0 mg/kg/injection, schedule: Q01DX009 (ip), vehicle: saline, higher = longer survival); 160 % of control under setting [1].

`FC(F)c1nc2nc(Cl)c(Cl)nc2[nH]1`: the T/C (endpoint: median survival time, dose: 2.0 mg/kg/injection, schedule: Q01DX009 (ip), vehicle: Klucel (hydroxypropylcellulose) (HPC), higher = longer survival) was 106 % of control; the T/C (endpoint: median survival time, dose: 4.0 mg/kg/injection, schedule: Q01DX009 (ip), vehicle: Klucel (hydroxypropylcellulose) (HPC), higher = longer survival) is 114 % of control; the T/C (endpoint: median survival time, dose: 8.0 mg/kg/injection, schedule: Q01DX009 (ip), vehicle: Klucel (hydroxypropylcellulose) (HPC), higher = longer survival) was 97 % of control; the T/C (endpoint: median survival time, dose: 8.0 mg/kg/injection, schedule: Q01DX009 (ip), vehicle: other, higher = longer survival) was 157 % of control; the T/C (endpoint: median survival time, dose: 16.0 mg/kg/injection, schedule: Q01DX009 (ip), vehicle: Klucel (hydroxypropylcellulose) (HPC), higher = longer survival) was 102 % of control; the T/C (endpoint: median survival time, dose: 16.0 mg/kg/injection, schedule: Q01DX009 (ip), vehicle: other, higher = longer survival) was 117 % of control. In addition, the T/C was 121 % of control (endpoint: median survival time, dose: 32.0 mg/kg/injection, schedule: Q01DX009 (ip), vehicle: Klucel (hydroxypropylcellulose) (HPC), higher = longer survival) and 89 % of control (endpoint: median survival time, dose: 32.0 mg/kg/injection, schedule: Q01DX009 (ip), vehicle: other, higher = longer survival).

As for `CNc1ncnc2c1cnn2C`, the T/C was 92 % of control (endpoint: median survival time, dose: 10.0 mg/kg/injection, schedule: Q01DX009 (ip), vehicle: saline, higher = longer survival) and 103 % of control (endpoint: median survival time, dose: 20.0 mg/kg/injection, schedule: Q01DX009 (ip), vehicle: saline, higher = longer survival).

Take `Cc1c(N)nc(C(CC(N)=O)NCC(N)C(N)=O)nc1C(=O)NC(C(=O)NC(C)C(O)C(C)C(=O)NC(C(=O)NCCc1nc(-c2nc(C(=O)NCCCNCCCCN)cs2)cs1)C(C)O)C(OC1OC(CO)C(O)C(O)C1OC1OC(CO)C(O)C(OC(N)=O)C1O)c1cnc[nH]1` (stereo unspecified): the T/C runs as follows: (endpoint: median survival time, dose: 1.56 mg/kg/injection, schedule: Q01DX009 (ip), vehicle: water, higher = longer survival) 164 % of control; (endpoint: median tumor weight (est.), dose: 1.56 mg/kg/injection, schedule: Q01DX009 (ip), vehicle: water, higher = larger tumour) 41 % of control; (endpoint: median tumor weight (est.), dose: 3.12 mg/kg/injection, schedule: Q01DX009 (ip), vehicle: water, higher = larger tumour) 24 % of control; (endpoint: median tumor weight (est.), dose: 6.25 mg/kg/injection, schedule: Q01DX009 (ip), vehicle: water, higher = larger tumour) 12 % of control.

As to `Nc1ncnc2c1ncn2C1OC(CO)C(O)C1O` (stereo unspecified), the T/C was 115 % of control (endpoint: median survival time, dose: 60.0 mg/kg/injection, schedule: Q03HX024 (ip), vehicle: saline with Tween-80, higher = longer survival); 96 % of control (endpoint: median survival time, dose: 70.0 mg/kg/injection, schedule: Q03HX024 (ip), vehicle: saline with Tween-80, higher = longer survival); 105 % of control (endpoint: median survival time, dose: 80.0 mg/kg/injection, schedule: Q03HX024 (ip), vehicle: saline with Tween-80, higher = longer survival); 115 % of control (endpoint: median survival time, dose: 160.0 mg/kg/injection, schedule: Q03HX024 (ip), vehicle: saline with Tween-80, higher = longer survival); 121 % of control (endpoint: median survival time, dose: 240.0 mg/kg/injection, schedule: Q03HX024 (ip), vehicle: saline with Tween-80, higher = longer survival).

Regarding `CC(=O)Oc1ccccc1C(=O)O`, the T/C by setting is: under setting [3], 95 % of control; under setting [4], 88 % of control; (endpoint: median survival time, dose: 256.0 mg/kg/injection, schedule: Q01DX009 (ip), vehicle: saline, higher = longer survival) 116 % of control.

Consider `CCN(CC)CCCC(C)Nc1c2ccc(Cl)cc2nc2ccc(OC)cc12` (stereo unspecified), for which the T/C is 116 % of control (endpoint: median survival time, dose: 8.0 mg/kg/injection, schedule: Q01DX009 (ip), vehicle: saline with Tween-80, higher = longer survival); 96 % of control (endpoint: median survival time, dose: 8.0 mg/kg/injection, schedule: Q01DX009 (ip), vehicle: saline, higher = longer survival); 119 % of control (endpoint: median survival time, dose: 8.0 mg/kg/injection, schedule: Q01DX009 (ip), vehicle: suspension in saline, higher = longer survival); 96 % of control and 118 % of control (endpoint: median survival time, dose: 16.0 mg/kg/injection, schedule: Q01DX009 (ip), vehicle: saline with Tween-80, higher = longer survival); 100 % of control under setting [2]; 121 % of control (endpoint: median survival time, dose: 16.0 mg/kg/injection, schedule: Q01DX009 (ip), vehicle: suspension in saline, higher = longer survival). Also, the T/C is, setting by setting: (endpoint: median survival time, dose: 32.0 mg/kg/injection, schedule: Q01DX009 (ip), vehicle: saline with Tween-80, higher = longer survival) 100 % of control and 108 % of control; under setting [3], 99 % of control; (endpoint: median survival time, dose: 32.0 mg/kg/injection, schedule: Q01DX009 (ip), vehicle: suspension in saline, higher = longer survival) 116 % of control; (endpoint: median survival time, dose: 64.0 mg/kg/injection, schedule: Q01DX009 (ip), vehicle: saline with Tween-80, higher = longer survival) 102 % of control and 110 % of control; under setting [4], 95 % of control; (endpoint: median survival time, dose: 64.0 mg/kg/injection, schedule: Q01DX009 (ip), vehicle: suspension in saline, higher = longer survival) 121 % of control. The T/C (endpoint: median survival time, dose: 128.0 mg/kg/injection, schedule: Q01DX009 (ip), vehicle: saline with Tween-80, higher = longer survival) is 102 % of control and the T/C (endpoint: median survival time, dose: 128.0 mg/kg/injection, schedule: Q01DX009 (ip), vehicle: suspension in saline, higher = longer survival) was 119 % of control.

On to `CC(C)(C)c1ccc(CN2CCN(C(c3ccccc3)c3ccc(Cl)cc3)CC2)cc1` (stereo unspecified), for which the T/C runs as follows: (endpoint: median survival time, dose: 22.5 micrograms/kg/injection, schedule: Q01DX009 (ip), vehicle: Klucel (hydroxypropylcellulose) (HPC), higher = longer survival) 91 % of control; (endpoint: median survival time, dose: 45.0 micrograms/kg/injection, schedule: Q01DX009 (ip), vehicle: Klucel (hydroxypropylcellulose) (HPC), higher = longer survival) 88 % of control.

On to `CCCCS(=O)CC(CO)NC(=O)/C=C/c1c(C)[nH]c(=O)[nH]c1=O` (stereo unspecified), for which the T/C by setting is: (endpoint: median survival time, dose: 1.25 mg/kg/injection, schedule: Q01DX009 (ip), vehicle: water, higher = longer survival) 100 % of control; (endpoint: median survival time, dose: 5.0 mg/kg/injection, schedule: Q01DX009 (ip), vehicle: water, higher = longer survival) 100 % of control; (endpoint: median survival time, dose: 10.0 mg/kg/injection, schedule: Q01DX009 (ip), vehicle: water, higher = longer survival) 116 % of control.
